According to ChEMBL document CHEMBL3217578, “Synthesis of a novel thiophene derivative that induces cancer cell apoptosis through modulation of AKT and MAPK pathways” (Medchemcomm, 2012):
In brackets after ≈: the same amount, converted by molar mass. Activity calls are given as the source filed them. The rule behind the calls is not given here.

Key:
[1] = Cell cycle arrest in mouse Neuro2a cells assessed as accumulation at G2/M phase at 2 ug/ml after 72 hrs using propidium iodide staining by flow cytometry analysis (reference value: 9.9%); format: functional, cell-based; settings: N2a
[2] = target: RAC-alpha serine/threonine-protein kinase (Mus musculus) (UniProt P31750); test: Inhibition of AKT phosphorylation in mouse Neuro2a cells at 2 ug/ml after 24 hrs by Western blot analysis relative to beta-actin; format: cell-based
Chain of RAC-alpha serine/threonine-protein kinase (Mus musculus) (P31750 whole entry): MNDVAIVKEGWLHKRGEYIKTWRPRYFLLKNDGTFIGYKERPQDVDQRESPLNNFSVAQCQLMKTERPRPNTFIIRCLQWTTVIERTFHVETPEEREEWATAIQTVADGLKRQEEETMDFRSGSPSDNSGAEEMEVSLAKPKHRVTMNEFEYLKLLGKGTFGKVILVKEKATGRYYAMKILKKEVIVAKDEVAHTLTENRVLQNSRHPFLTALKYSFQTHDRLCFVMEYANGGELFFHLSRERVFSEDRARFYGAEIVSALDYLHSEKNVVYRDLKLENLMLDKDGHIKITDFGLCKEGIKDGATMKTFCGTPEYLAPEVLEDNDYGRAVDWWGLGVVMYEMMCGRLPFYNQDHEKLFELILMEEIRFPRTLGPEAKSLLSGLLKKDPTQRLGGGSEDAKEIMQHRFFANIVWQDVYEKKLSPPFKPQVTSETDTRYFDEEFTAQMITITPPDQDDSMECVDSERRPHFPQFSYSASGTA

[3] = target: RAC-alpha serine/threonine-protein kinase (Mus musculus) (UniProt P31750); test: Inhibition of AKT phosphorylation in mouse Neuro2a cells at 4 ug/ml after 24 hrs by Western blot analysis relative to beta-actin; format: cell-based
Neuro2a [4] = test: Inhibition of ERK phosphorylation in mouse Neuro2a cells at 2 ug/ml after 24 hrs by Western blot analysis relative to beta-actin; format: cell-based
Neuro2a [5] = test: Inhibition of JNK phosphorylation in mouse Neuro2a cells assessed as total protein level at 2 ug/ml after 24 hrs by Western blot analysis relative to beta-actin; format: cell-based
[6] = Cell cycle arrest in mouse Neuro2a cells assessed as accumulation at sub-G1 phase at 2 ug/ml after 72 hrs using propidium iodide staining by flow cytometry analysis (reference value: 4.7%); format: functional, cell-based; settings: N2a
[7] = Cell cycle arrest in mouse Neuro2a cells assessed as accumulation at G0/G1 phase at 4 ug/ml after 72 hrs using propidium iodide staining by flow cytometry analysis (reference value: 41.6%); format: functional, cell-based; settings: N2a
[8] = Cell cycle arrest in mouse Neuro2a cells assessed as accumulation at S phase at 4 ug/ml after 72 hrs using propidium iodide staining by flow cytometry analysis (reference value: 48.5%); format: functional, cell-based; settings: N2a
[9] = target: T1, MAP kinase p38 (Mus musculus) (UniProt P47811+O08911+Q9WUI1+Q9Z1B7); test: Inhibition of p38 phosphorylation in mouse Neuro2a cells assessed as total protein level at 2 ug/ml after 24 hrs by Western blot analysis relative to beta-actin; format: cell-based
Neuro2a [10] = test: Inhibition of JNK phosphorylation in mouse Neuro2a cells assessed as total protein level at 8 ug/ml after 24 hrs by Western blot analysis relative to beta-actin; format: cell-based
Neuro2a [11] = test: Inhibition of JNK phosphorylation in mouse Neuro2a cells at 4 ug/ml after 24 hrs by Western blot analysis relative to beta-actin; format: cell-based
[12] = Cell cycle arrest in mouse Neuro2a cells assessed as accumulation at S phase at 2 ug/ml after 72 hrs using propidium iodide staining by flow cytometry analysis (reference value: 48.5%); format: functional, cell-based; settings: N2a
Neuro2a [13] = test: Inhibition of ERK phosphorylation in mouse Neuro2a cells assessed as total protein level at 2 ug/ml after 24 hrs by Western blot analysis relative to beta-actin; format: cell-based
N2a [14] = test: Induction of apoptosis in mouse Neuro2a cells assessed as activation of caspase-8 using IETD-AFC as substrate by fluorometric assay; format: functional, cell-based
[15] = target: RAC-alpha serine/threonine-protein kinase (Mus musculus) (UniProt P31750); test: Inhibition of AKT phosphorylation in mouse Neuro2a cells assessed as total protein level at 2 ug/ml after 24 hrs by Western blot analysis relative to beta-actin; format: cell-based
[16] = Cell cycle arrest in mouse Neuro2a cells assessed as accumulation at G2/M phase at 8 ug/ml after 72 hrs using propidium iodide staining by flow cytometry analysis (reference value: 9.9%); format: functional, cell-based; settings: N2a
Neuro2a [17] = test: Inhibition of ERK phosphorylation in mouse Neuro2a cells assessed as total protein level at 8 ug/ml after 24 hrs by Western blot analysis relative to beta-actin; format: cell-based
[18] = Cell cycle arrest in mouse Neuro2a cells assessed as accumulation at sub-G1 phase at 8 ug/ml after 72 hrs using propidium iodide staining by flow cytometry analysis (reference value: 4.7%); format: functional, cell-based; settings: N2a
N2a [19] = test: Induction of apoptosis in mouse Neuro2a cells assessed as reduction of ROS production after 3 hrs by DCF fluorescence assay; format: functional, cell-based
N2a [20] = test: Induction of apoptosis in mouse Neuro2a cells assessed as DNA fragmentation and nuclear condensation after 24 hrs by TUNEL-DAPI co-staining assay; format: functional, cell-based
[21] = Cytotoxicity against human HK2 cells after 72 hrs by MTT assay; format: cell-based; settings: HK-2, 72 h
Neuro2a [22] = test: Inhibition of JNK phosphorylation in mouse Neuro2a cells assessed as total protein level at 4 ug/ml after 24 hrs by Western blot analysis relative to beta-actin; format: cell-based
[23] = target: RAC-alpha serine/threonine-protein kinase (Mus musculus) (UniProt P31750); test: Inhibition of AKT phosphorylation in mouse Neuro2a cells assessed as total protein level after 24 hrs by Western blot analysis; format: cell-based
[24] = target: RAC-alpha serine/threonine-protein kinase (Mus musculus) (UniProt P31750); test: Inhibition of AKT phosphorylation in mouse Neuro2a cells at 8 ug/ml after 24 hrs by Western blot analysis relative to beta-actin; format: cell-based
[25] = Cell cycle arrest in mouse Neuro2a cells assessed as accumulation at G2/M phase at 4 ug/ml after 72 hrs using propidium iodide staining by flow cytometry analysis (reference value: 9.9%); format: functional, cell-based; settings: N2a
Neuro2a [26] = test: Inhibition of JNK phosphorylation in mouse Neuro2a cells assessed as total protein level at 2 to 8 ug/ml after 24 hrs by Western blot analysis; format: cell-based
[27] = target: RAC-alpha serine/threonine-protein kinase (Mus musculus) (UniProt P31750); test: Inhibition of AKT phosphorylation in mouse Neuro2a cells after 24 hrs by Western blot analysis; format: cell-based
[28] = target: RAC-alpha serine/threonine-protein kinase (Mus musculus) (UniProt P31750); test: Inhibition of AKT phosphorylation in mouse Neuro2a cells assessed as total protein level at 4 ug/ml after 24 hrs by Western blot analysis relative to beta-actin; format: cell-based
[29] = Cytotoxicity against human MG63 cells after 72 hrs by MTT assay; format: functional, cell-based; settings: MG-63, 72 h
N2a [30] = test: Induction of apoptosis in mouse Neuro2a cells assessed as activation of caspase-3 using Ac-DEVD-AFC as substrate by fluorometric assay; format: functional, cell-based
N2a [31] = test: Induction of apoptosis in mouse Neuro2a cells assessed as activation of caspase-3 at 8 ug/ml using Ac-[…]-AFC as substrate by fluorometric assay relative to control; format: functional
Neuro2a [32] = test: Inhibition of JNK phosphorylation in mouse Neuro2a cells at 8 ug/ml after 24 hrs by Western blot analysis relative to beta-actin; format: cell-based
N2a [33] = test: Induction of apoptosis in mouse Neuro2a cells assessed as activation of caspase-9 at 4 ug/ml using Ac-LEHD-AFC as substrate by fluorometric assay relative to control; format: functional
[34] = Cytotoxicity against human HeLa 229 cells after 72 hrs by MTT assay; format: functional, cell-based; settings: HeLa 229, 72 h
Neuro2a [35] = test: Inhibition of ERK phosphorylation in mouse Neuro2a cells at 4 ug/ml after 24 hrs by Western blot analysis relative to beta-actin; format: cell-based
[36] = Cell cycle arrest in mouse Neuro2a cells assessed as accumulation at sub-G1 phase at 4 ug/ml after 72 hrs using propidium iodide staining by flow cytometry analysis (reference value: 4.7%); format: functional, cell-based; settings: N2a
Neuro2a [37] = test: Inhibition of ERK phosphorylation in mouse Neuro2a cells assessed as total protein level at 4 ug/ml after 24 hrs by Western blot analysis relative to beta-actin; format: cell-based
[38] = Cell cycle arrest in mouse Neuro2a cells assessed as accumulation at S phase at 8 ug/ml after 72 hrs using propidium iodide staining by flow cytometry analysis (reference value: 48.5%); format: functional, cell-based; settings: N2a
Neuro2a [39] = test: Inhibition of JNK phosphorylation in mouse Neuro2a cells at 2 ug/ml after 24 hrs by Western blot analysis relative to beta-actin; format: cell-based
[40] = target: T1, MAP kinase p38 (Mus musculus); test: Inhibition of p38 phosphorylation in mouse Neuro2a cells assessed as total protein level at 4 ug/ml after 24 hrs by Western blot analysis relative to beta-actin; format: cell-based
[41] = Cell cycle arrest in mouse Neuro2a cells assessed as accumulation at G0/G1 phase at 8 ug/ml after 72 hrs using propidium iodide staining by flow cytometry analysis (reference value: 41.6%); format: functional, cell-based; settings: N2a
PC-3 = test: Cytotoxicity against human PC3 cells after 72 hrs by MTT assay; format: functional, cell-based; settings: PC-3, 72 h
[42] = target: T1, MAP kinase p38 (Mus musculus); test: Inhibition of p38 phosphorylation in mouse Neuro2a cells assessed as total protein level at 8 ug/ml after 24 hrs by Western blot analysis relative to beta-actin; format: cell-based
A-375 = test: Cytotoxicity against human A375 cells after 72 hrs by MTT assay; format: functional, cell-based; settings: A-375, 72 h
[43] = Cell cycle arrest in mouse Neuro2a cells assessed as accumulation at G0/G1 phase at 2 ug/ml after 72 hrs using propidium iodide staining by flow cytometry analysis (reference value: 41.6%); format: functional, cell-based; settings: N2a
N2a [44] = test: Induction of apoptosis in mouse Neuro2a cells assessed as activation of caspase-9 using Ac-LEHD-AFC as substrate by fluorometric assay; format: functional, cell-based
[45] = target: T1, MAP kinase p38 (Mus musculus); test: Inhibition of p38 phosphorylation in mouse Neuro2a cells at 2 to 8 ug/ml after 24 hrs by Western blot analysis; format: cell-based
Neuro2a [46] = test: Inhibition of ERK phosphorylation in mouse Neuro2a cells at 8 ug/ml after 24 hrs by Western blot analysis relative to beta-actin; format: cell-based
[47] = Cell cycle arrest in mouse Neuro2a cells assessed as accumulation at sub-G1 phase after 72 hrs using propidium iodide staining by flow cytometry analysis; format: functional, cell-based; settings: N2a
[48] = (§1) Cytotoxicity against mouse Neuro2a cells after 72 hrs by MTT assay; format: functional, cell-based; settings: N2a
N2a [49] = test: as §1; format: functional, cell-based
N2a [50] = test: Cytotoxicity against mouse Neuro2a cells at 8 ug/ml after 24 hrs by MTT assay in presence of NAC; format: functional, cell-based
[51] = Antioxidant activity assessed as ABTS free radical scavenging activity; format: functional; settings: TDE = time-dependent effect
[52] = target: RAC-alpha serine/threonine-protein kinase (Mus musculus) (UniProt P31750); test: Inhibition of AKT phosphorylation in mouse Neuro2a cells assessed as total protein level at 8 ug/ml after 24 hrs by Western blot analysis relative to beta-actin; format: cell-based

Oc1ccc(-n2c(-c3cccs3)ccc2-c2cccs2)cc1
Activity [1]: 11.6%
fold change (FC) [2]: 0.8
fold change (FC) [3]: 0.3
fold change (FC) (Neuro2a [4]): 0
fold change (FC) (Neuro2a [5]): 1
Activity [6]: 9.1%
Activity [7]: 46.9%
Activity [8]: 42.6%
fold change (FC) [9]: 1.2
fold change (FC) (Neuro2a [10]): 0.9
fold change (FC) (Neuro2a [11]): 1.6
Activity [12]: 48.5%
fold change (FC) (Neuro2a [13]): 1
Activity (N2a [14]): Dose-dependent effect
fold change (FC) [15]: 0.8
Activity [16]: 15.7%
fold change (FC) (Neuro2a [17]): 0.6
Activity [18]: 26.3%
Activity (N2a [19]): Dose-dependent effect
Activity (N2a [20]): Dose-dependent effect
IC50 [21]: 73.4 µg/mL (≈ 227 µM)
fold change (FC) (Neuro2a [22]): 1
inhibition [23]: Dose-dependent effect
fold change (FC) [24]: 0.1
Activity [25]: 10.5%
inhibition (Neuro2a [26]): inactive
inhibition [27]: Dose-dependent effect
fold change (FC) [28]: 0.7
IC50 [29]: 39.6 µg/mL (≈ 122 µM)
Activity (N2a [30]): Dose-dependent effect
fold change (FC) (N2a [31]): 1.5
fold change (FC) (Neuro2a [32]): 2.1
fold change (FC) (N2a [33]): 1.4
IC50 [34]: 36.4 µg/mL (≈ 113 µM)
fold change (FC) (Neuro2a [35]): 0
Activity [36]: 19.2%
fold change (FC) (Neuro2a [37]): 0.6
Activity [38]: 38.9%
fold change (FC) (Neuro2a [39]): 0.9
fold change (FC) [40]: 1.6
Activity [41]: 44.4%
IC50 (PC-3): 51.3 µg/mL (≈ 159 µM)
fold change (FC) [42]: 1.7
IC50 (A-375): 27.6 µg/mL (≈ 85.3 µM)
Activity [43]: 39.9%
Activity (N2a [44]): Dose-dependent effect
inhibition [45]: inactive
fold change (FC) (Neuro2a [46]): 0
Activity [47]: Dose-dependent effect
IC50 [48]: 2.6 µg/mL (≈ 8.04 µM)
growth inhibition (GI) (N2a [49]): Dose-dependent effect
growth inhibition (GI) (N2a [50]): Active
Activity [51]: tde
fold change (FC) [52]: 0.4
